Data from patent publication US20050159365A1, “Hepatits c virus inhibitor comprising alpha-glycosylceramide as the active ingredient” (Kirin Beer Kabushiki Kaisha, priority 2002, published 2005).
Like-named read-outs stand apart in the source and are kept apart here.

Columns and labels:
Type in all cases: in vivo
[1] = Serum KRN7000 levels by LC-MS/MS after intravenous administration to HCV-infected chimpanzees; settings: for Concentration in blood (serum KRN7000 level): before administration; for concentration at 15 min / concentration at 6 h: chimpanzee, serum, iv, 10 μg/kg, read-out: Concentration in blood (serum KRN7000 level); for concentration at 15 min: 15 minutes later; for concentration at 6 h: 6 hours later
Excerpt: (§1) Chimpanzees are the only test animals that can be persistently infected with hepatitis C viruses. Thus, 2 chimpanzees were selected as test animals for this experiment from the chimpanzee-dedicated facility (Kumamoto Primates Park, Sanwa Kagaku Kenkyusho Colo., Ltd.) where chimpanzees including hepatitis C virus carriers have been artificially bred and propagated over a long period of time. This experiment was examined and approved by the Experiment Review Board in advance in terms of ethics and test contents, and pain inflicted on chimpanzees was eliminated as much as possible during the experiment. Two chimpanzees employed in the experiment are hereafter referred to as Animal No. C33 (the duration of persistent infection with HCV (1a): 22 years) and Animal No. C54 (the duration of persistent infection with HCV (1b): 20 years), respectively.
After an acclimation period of approximately 1 month, KRN7000 was intravenously administered two times to animals at the rate of 10 μg/kg at the interval of 28 days (day 0 and day 28). In order to obtain samples for verifying the responses of chimpanzees to KRN7000 and efficacy of KRN7000 on chronic HCV infections, blood drawing was carried out before and after each administration. The total leukocyte count was measured using an automated blood cell counter Sysmex K4500 (Sysmex Corporation). The leukocyte percentage was determined by coating whole blood onto a fat-free slide glass, immobilizing it thereon, staining with Diff-Quick (International Reagents Corp.), and microscopically examining 200 leukocytes. Neutrophil and lymphocyte counts were calculated by multiplying the obtained values with the total leukocyte count. The NKT cell percentage in the T cells was determined by: staining the whole blood with an anti-human TCR Vα24 antibody (Beckman Coulter), KRN7000 (α-GalCer)-bound human CD1d tetramer, and an anti-human CD3 antibody (Becton Dickinson Japan) that are labeled with different fluorescent dyes; lysing the stained whole blood with the FACS Lysing Solution (Becton Dickinson Japan); immobilizing thereof; and then determining the NKT cell ratio using the FACSCalibur (Becton Dickinson Japan). Cells that had responded to all of the anti-human TCR Vα24 antibody, the tetramer, and the anti-human CD3 antibody were determined to be the NKT cells of the chimpanzees. The activities of alanine aminotransferase (ALT), aspartate aminotransferase (AST), and lactate dehydrogenase (LDH) in serums were assayed using an automatic analyzer. The serum HCV-RNA levels were assayed by RT-PCR using the AMPLICOR® GT HCV monitor (Roche Diagnostics) and branched DNA (bDNA) probe assay using the Quantiplex HCV-RNA 2 (Bayer Corporation). The serum KRN7000 levels were assayed by liquid chromatography and tandem mass spectrometry (LC-MS/MS).

[2] = Serum ALT, AST and LDH activities in HCV-infected chimpanzees; settings: both chimpanzees, both stages; peaks 1 day or 3 days after administration, then returned to levels before administration
Excerpt: as §1
(§2) After an acclimation period of approximately 1 month, KRN7000 was intravenously administered two times to animals at the rate of 10 μg/kg at the interval of 28 days (day 0 and day 28). […] The total leukocyte count was measured using an automated blood cell counter Sysmex K4500 (Sysmex Corporation). The leukocyte percentage was determined by coating whole blood onto a fat-free slide glass, immobilizing it thereon, staining with Diff-Quick (International Reagents Corp.), and microscopically examining 200 leukocytes. Neutrophil and lymphocyte counts were calculated by multiplying the obtained values with the total leukocyte count. The NKT cell percentage in the T cells was determined by: staining the whole blood with an anti-human TCR Vα24 antibody (Beckman Coulter), KRN7000 (α-GalCer)-bound human CD1d tetramer, and an anti-human CD3 antibody (Becton Dickinson Japan) that are labeled with different fluorescent dyes; lysing the stained whole blood with the FACS Lysing Solution (Becton Dickinson Japan); immobilizing thereof; and then determining the NKT cell ratio using the FACSCalibur (Becton Dickinson Japan). […]

leukocytes = test: Total leukocyte, neutrophil and lymphocyte counts in blood of HCV-infected chimpanzees; settings: 10 μg/kg i.v.
Excerpt: as §1, §2

NKT cells = test: NKT cell percentage in the T cells by FACS in HCV-infected chimpanzees
Excerpt: as §1, with “Two chimpanzees employed in the experiment are hereafter referred to as Animal No. C33 (the duration of persistent infection with HCV (1a): 22 years) and Animal No. C54 (the duration of persistent infection with HCV (1b): 20 years), respectively.” left out
After an acclimation period of approximately 1 month, KRN7000 was intravenously administered two times to animals at the rate of 10 μg/kg at the interval of 28 days (day 0 and day 28). […] The total leukocyte count was measured using an automated blood cell counter Sysmex K4500 (Sysmex Corporation). The leukocyte percentage was determined by coating whole blood onto a fat-free slide glass, immobilizing it thereon, staining with Diff-Quick (International Reagents Corp.), and microscopically examining 200 leukocytes. Neutrophil and lymphocyte counts were calculated by multiplying the obtained values with the total leukocyte count. […]

hepatitis C virus = test: Serum HCV-RNA levels (RT-PCR, bDNA probe assay) in chimpanzees persistently infected with hepatitis C virus
Excerpt: as §1, §2

[3] = Animal C33, first administration (10 μg/kg i.v., day 0)
[4] = Animal C33, second administration (10 μg/kg i.v., day 28)
[5] = Animal C54, first administration (10 μg/kg i.v., day 0)
[6] = Animal C54, second administration (10 μg/kg i.v., day 28)

For `CCCCCCCCCCCCCCCCCCCCCCCCCC(=O)N[C@@H](CO[C@H]1O[C@H](CO)[C@H](O)[C@H](O)[C@H]1O)[C@H](O)[C@H](O)CCCCCCCCCCCCCC` [KRN7000, (2S,3S,4R)-1-(α-D-galactopyranosyloxy)-2-hexacosanoylamino-3,4-octadecanediol], the “Concentration in blood (serum KRN7000 level)” value (“Concentration in blood” below) [1, 3] was <10 ng/mL, the “Concentration in blood” value [1, 4] was <10 ng/mL and the “Concentration in blood” value [1, 5] was <10 ng/mL. The “Concentration in blood” value [1, 6] was <10 ng/mL, the “Time after administration at which maximum serum levels of KRN7000 were detected” value ([1]; both chimpanzees, both stages, 10 μg/kg i.v.) was 15 min and the concentration at 15 min [1, 3] was 89 ng/mL. The concentration at 6 h [1, 3] was 38 ng/mL, the concentration at 15 min [1, 4] was 97 ng/mL and the concentration at 6 h [1, 4] was 58 ng/mL. It also gave a concentration at 15 min [1, 5] of 129 ng/mL, a concentration at 6 h [1, 5] of 42 ng/mL and a concentration at 15 min [1, 6] of 141 ng/mL. The concentration at 6 h [1, 6] was 77 ng/mL, the “Serum ALT activity” value [2] was “transiently and mildly elevated” and the “Serum AST activity” value [2] was “transiently and mildly elevated”. For the same molecule, the “Serum LDH activity” value [2] was “transiently and mildly elevated”, the Lymphocyte count (leukocytes; 6 hours after the administration, some exceptions) was “decreased” and the Neutrophil count (leukocytes; both chimpanzees, both stages of administration, 6 hours later) was “increased”. The Total leukocyte count (leukocytes; in many cases, after administration) was “transiently increased”, the “NKT cells, course after disappearance” value (NKT cells; Test Animal No. C54, after the administration) was “gradually showed a tendency to recover” and the “NKT cells (ratio of NKT cell count to T cell count)” value (NKT cells; day following both administrations, both chimpanzees, 10 μg/kg i.v.) was “not detected”. The “Effect on chimpanzees infected with chronic HCV (overall conclusion)” value (hepatitis C virus; 10 μg/kg i.v. two times at interval of 28 days) was “anti-HCV effects”, the “HCV-RNA levels, second administration (day 28) compared with initial administration (day 0)” value (hepatitis C virus; 10 μg/kg i.v., day 0 and day 28) was “continuously decreased” and the “Serum HCV-RNA levels” value (hepatitis C virus; both chimpanzees (HCV 1a, 1b), 1 day or 3 days after administration, both stages, 10 μg/kg i.v., RT-PCR or bDNA) was “apparent decreases”.
